Assay results: patent US10898469B2, “Imidazolylamide derivative” (Sumitomo Dainippon Pharma Co., Ltd., priority 2016, dated 2021)
Counter-ions that a name gives are not always drawn. Like-named read-outs stand apart in the source and are kept apart here.

What was measured:
Format in all cases: cell-based, human
HT-29 cells = experiment: Inhibition test for sphere-forming ability of cancer cells (Test Example 1), HT-29; conditions: for IC50: concentration for 50% inhibition of cell proliferation, read-out: IC50 (μmol/L) HT-29 (Sphere IC50 value); for (100%-inhibition rate of cell proliferation) at 1 μmol/L, HT-29: value with %
Source text: (§1) The reliable methods established for measuring the self-renewal ability of cells which is one of the CSC's properties include a method for measuring the sphere-forming ability of cancer cells in non-adherent condition in the absence of serum (Cancer Res 65, 5506-5511 (2005)). Human colorectal cancer-derived HCT-116 cells, human colon-adenocarcinoma-derived HT-29 cells, and human pharyngeal cancer-derived FaDu cells were available from American Type Culture Collection (ATCC). HCT-116 cells and HT-29 cells were cultured at 37° C. under 5% CO2 using the McCoy's 5a medium containing 10% fetal bovine serum (FBS) and 1% penicillin/streptomycin, and FaDu cells were cultured at 37° C. under 5% CO2 using the MEM medium containing 10% FBS, 1% non-essential amino acid, 1% sodium pyruvate, and 1% penicillin/streptomycin. HCT-116 cells, HT-29 cells, and FaDu cells were seeded in a 384 Well Black Clear Bottom Ultra-Low Attachment Microplate (Corning Cat. No. 3827) in an amount of 350-800 cells/well using the DMEM/F12 medium containing 2% B27 supplement (GIBCO), 20 ng/mL epidermal growth factor (EGF) (peprotech), 10 ng/mL basic fibroblast growth factor (bFGF) (peprotech), 5 μg/mL insulin (Sigma), and 1% penicillin/streptomycin. Each test compound was added into each well to adjust the final concentration of DMSO to 0.1%, and the cells were cultured for 4 days. The number of viable cells in each well was then measured with CellTiter-Glo® Luminescent Cell Viability Assay (Promega) to calculate the concentration of each test compound for 50% inhibition of cell proliferation (Sphere IC50 value; μmol/L).
(§2) The experiment of Test Example 1 was performed for each compound of each Example. The concentration of each test compound for 50% inhibition of cell proliferation (Sphere IC50 value; μmol/L) is shown in the following Table.

FaDu cells = experiment: Inhibition test for sphere-forming ability of cancer cells (Test Example 1), FaDu; conditions: for IC50: concentration for 50% inhibition of cell proliferation, read-out: IC50 (μmol/L) FaDu (Sphere IC50 value); for (100%-inhibition rate of cell proliferation) at 1 μmol/L, FaDu: value with %
Source text: as §1, §2

HCT-116 cells = experiment: Inhibition test for sphere-forming ability of cancer cells (Test Example 1), HCT-116; conditions: for IC50 / (100%-inhibition rate of cell proliferation) at 1 μmol/L, HCT-116: HCT-116 cells; for IC50: concentration for 50% inhibition of cell proliferation, read-out: IC50 (μmol/L) HCT-116 (Sphere IC50 value); for (100%-inhibition rate of cell proliferation) at 1 μmol/L, HCT-116: value with %; for inhibitory effect on the sphere-forming ability of cancer cells: Test Example 1, summary in words, cell line not given (HCT-116, HT-29, FaDu tested)
Source text: as §1, §2

Compound	IC50 (HT-29 cells)	IC50 (FaDu cells)	IC50 (HCT-116 cells)	further results
CC(C)Oc1ccc(C(=O)Nc2cn(Cc3cccc(OC(F)(F)F)c3)cn2)cn1 [Example 215]	0.66 µmol/L	0.85 µmol/L	0.88 µmol/L	–
O=C(Nc1cn(Cc2cccc(Cl)c2)cn1)c1ccc(-n2cccn2)nc1 [Example 196]	3.78 µmol/L	0.89 µmol/L	0.76 µmol/L	–
O=C(/C=C/c1cccnc1)Nc1cn(Cc2cccc(OC(F)(F)F)c2)cn1 [Example 109]	–	–	–	IC50 (HT-29 cells; Homo sapiens): 0.75 µmol/L; IC50 (FaDu cells; Homo sapiens): 0.67 µmol/L; IC50 (HCT-116 cells; Homo sapiens): 2.65 µmol/L
O=C(/C=C/c1cccc(Oc2ccccc2)c1)Nc1cn(Cc2cccc(OC(F)(F)F)c2)cn1 [Example 108]	–	–	–	IC50 (HT-29 cells; Homo sapiens): 3.43 µmol/L; IC50 (FaDu cells; Homo sapiens): 9.77 µmol/L; IC50 (HCT-116 cells; Homo sapiens): 3.31 µmol/L
COc1ccc(C(=O)Nc2cn(Cc3ccc(Cl)s3)cn2)cc1OC [Example 173]	–	–	–	(100%-inhibition rate of cell proliferation) at 1 μmol/L, HT-29 (HT-29 cells): 21.6%; (100%-inhibition rate of cell proliferation) at 1 μmol/L, FaDu (FaDu cells): 21.4%; (100%-inhibition rate of cell proliferation) at 1 μmol/L, HCT-116 (HCT-116 cells): 29.5%
O=C(/C=C/c1cncc(F)c1)Nc1cn(Cc2cccc(Cl)c2)cn1 [Example 42, (E)-N-(1-(3-Chlorobenzyl)-1H-imidazol-4-yl)-3-(5-fluoropyridin-3-yl)acrylamide]	–	–	–	IC50 (HT-29 cells; Homo sapiens): 0.7 µmol/L; IC50 (FaDu cells; Homo sapiens): 5.77 µmol/L; IC50 (HCT-116 cells; Homo sapiens): 0.96 µmol/L
COc1ccc(C(=O)Nc2cn(Cc3cccc(C(F)(F)F)c3)cn2)cc1OC [Example 165]	–	–	–	(100%-inhibition rate of cell proliferation) at 1 μmol/L, HT-29 (HT-29 cells): 28.0%; (100%-inhibition rate of cell proliferation) at 1 μmol/L, FaDu (FaDu cells): 24.1%; (100%-inhibition rate of cell proliferation) at 1 μmol/L, HCT-116 (HCT-116 cells): 31.9%
CCOc1ccc(C(=O)Nc2cn(Cc3c(F)ccc(C)c3F)cn2)cn1 [Example 221]	0.59 µmol/L	0.89 µmol/L	0.51 µmol/L	–
COC(=O)c1ccc(/C=C/C(=O)Nc2cn(Cc3cccc(Cl)c3)cn2)cn1 [Example 25, Methyl (E)-5-(3-((1-(3-chlorobenzyl)-1H-imidazol-4-yl)amino)-3-oxoprop-1-en-1-yl)picolinate]	–	–	–	IC50 (HT-29 cells; Homo sapiens): 2.61 µmol/L; IC50 (FaDu cells; Homo sapiens): 0.89 µmol/L; IC50 (HCT-116 cells; Homo sapiens): > 10 µmol/L
O=C(/C=C/c1cccc(Oc2ccccc2)c1)Nc1cn(Cc2cccc(Cl)c2)cn1 [Example 79]	0.7 µmol/L	0.86 µmol/L	0.79 µmol/L	–
O=C(Nc1cn(Cc2cccc(Cl)c2)cn1)c1ccc(OCc2ccccc2)cc1 [Example 197]	–	–	–	(100%-inhibition rate of cell proliferation) at 1 μmol/L, HT-29 (HT-29 cells): 39.0%; (100%-inhibition rate of cell proliferation) at 1 μmol/L, FaDu (FaDu cells): 28.9%; (100%-inhibition rate of cell proliferation) at 1 μmol/L, HCT-116 (HCT-116 cells): 44.3%
O=C(/C=C/c1cnc2ccccc2c1)Nc1cn(Cc2cccc(Cl)c2)cn1 [Example 92]	0.62 µmol/L	0.74 µmol/L	1.61 µmol/L	–
COc1ccccc1/C=C/C(=O)Nc1cn(Cc2cccc(Cl)c2)cn1 [Example 77]	0.38 µmol/L	< 0.01 µmol/L	0.84 µmol/L	inhibitory effect on the sphere-forming ability of cancer cells (HCT-116 cells): particularly potent inhibitory effect
O=C(/C=C/c1ccc(Br)cc1)Nc1cn(Cc2cccc(Cl)c2)cn1 [Example 61]	0.02 µmol/L	0.07 µmol/L	0.09 µmol/L	inhibitory effect on the sphere-forming ability of cancer cells (HCT-116 cells): particularly potent inhibitory effect
O=C(/C=C/c1cccs1)Nc1cn(Cc2cccc(Cl)c2)cn1 [Example 94]	0.97 µmol/L	4.57 µmol/L	7.88 µmol/L	–
Cc1cccc(/C=C/C(=O)Nc2cn(Cc3cccc(Cl)c3)cn2)c1 [Example 73]	1.49 µmol/L	0.85 µmol/L	4.53 µmol/L	–
Cc1ccc(/C=C/C(=O)Nc2cn(Cc3cccc(Cl)c3)cn2)cc1 [Example 49]	0.06 µmol/L	0.08 µmol/L	0.1 µmol/L	inhibitory effect on the sphere-forming ability of cancer cells (HCT-116 cells): particularly potent inhibitory effect
COc1ccc(C(=O)Nc2cn(Cc3cccc(Cl)c3)cn2)cn1 [Example 202]	5.68 µmol/L	6.87 µmol/L	0.96 µmol/L	–

Compound	IC50 (HT-29 cells)	IC50 (FaDu cells)	IC50 (HCT-116 cells)	further results
COc1cccc(OC)c1/C=C/C(=O)Nc1cn(Cc2cccc(Cl)c2)cn1 [Example 76]	2.71 µmol/L	4.11 µmol/L	6.18 µmol/L	–
CCOc1ccc(C(=O)Nc2cn(Cc3cccc(Cl)c3)cn2)cn1 [Example 203]	0.71 µmol/L	0.9 µmol/L	0.9 µmol/L	–
O=C(Nc1cn(Cc2cccc(Cl)c2)cn1)c1ccc(OC2CCCC2)nc1 [Example 208]	0.81 µmol/L	5.33 µmol/L	> 10 µmol/L	–
COc1ccc(OC)c(/C=C/C(=O)Nc2cn(Cc3cccc(Cl)c3)cn2)c1 [Example 53]	0.84 µmol/L	0.87 µmol/L	0.87 µmol/L	–
Cc1cccc(/C=C/C(=O)Nc2cn(Cc3c(F)ccc(C)c3F)cn2)c1 [Example 115]	–	–	–	IC50 (HT-29 cells; Homo sapiens): 0.66 µmol/L; IC50 (FaDu cells; Homo sapiens): 0.79 µmol/L; IC50 (HCT-116 cells; Homo sapiens): 0.79 µmol/L
COc1ccc(C(=O)Nc2cn(Cc3ccc(C(C)C)cc3)cn2)cc1OC [Example 168]	–	–	–	(100%-inhibition rate of cell proliferation) at 1 μmol/L, HT-29 (HT-29 cells): 8.6%; (100%-inhibition rate of cell proliferation) at 1 μmol/L, FaDu (FaDu cells): 32.3%; (100%-inhibition rate of cell proliferation) at 1 μmol/L, HCT-116 (HCT-116 cells): 32.1%
CCCCOc1ccc(C(=O)Nc2cn(Cc3cccc(Cl)c3)cn2)cn1 [Example 135]	–	–	–	(100%-inhibition rate of cell proliferation) at 1 μmol/L, HT-29 (HT-29 cells): 28.0%; (100%-inhibition rate of cell proliferation) at 1 μmol/L, FaDu (FaDu cells): 25.0%; (100%-inhibition rate of cell proliferation) at 1 μmol/L, HCT-116 (HCT-116 cells): 31.8%
O=C(Nc1cn(Cc2cccc(Cl)c2)cn1)c1ccc(OCc2ccccc2)nc1 [Example 206]	0.09 µmol/L	0.09 µmol/L	0.69 µmol/L	inhibitory effect on the sphere-forming ability of cancer cells (HCT-116 cells): particularly potent inhibitory effect
CN(C)CCOc1ccc(C(=O)Nc2cn(Cc3cccc(Cl)c3)cn2)cn1 [Example 205]	2.39 µmol/L	6.39 µmol/L	> 10 µmol/L	–
CN(C)c1ccc(/C=C/C(=O)Nc2cn(Cc3cccc(Cl)c3)cn2)cc1 [Example 63]	0.07 µmol/L	0.08 µmol/L	0.53 µmol/L	–
COc1ccc(C(=O)Nc2cn(Cc3ccc(C)c(Cl)c3)cn2)cc1OC [Example 295]	–	–	–	(100%-inhibition rate of cell proliferation) at 1 μmol/L, HT-29 (HT-29 cells): 37.8%; (100%-inhibition rate of cell proliferation) at 1 μmol/L, FaDu (FaDu cells): 31.8%; (100%-inhibition rate of cell proliferation) at 1 μmol/L, HCT-116 (HCT-116 cells): 83.0%
Nc1ccc(/C=C/C(=O)Nc2cn(Cc3cccc(Cl)c3)cn2)cc1 [Example 3, (E)-3-(4-Aminophenyl)-N-(1-(3-chlorobenzyl)-1H-imidazol-4-yl)acrylamide Dihydrochloride]	–	–	–	IC50 (HT-29 cells; Homo sapiens): 3.58 µmol/L; IC50 (FaDu cells; Homo sapiens): 3.13 µmol/L; IC50 (HCT-116 cells; Homo sapiens): 6.76 µmol/L
COc1ccc(C(=O)Nc2cn(Cc3cccc(OC(F)(F)F)c3)cn2)cc1OC [Example 166]	–	–	–	(100%-inhibition rate of cell proliferation) at 1 μmol/L, HT-29 (HT-29 cells): 33.0%; (100%-inhibition rate of cell proliferation) at 1 μmol/L, FaDu (FaDu cells): 23.8%; (100%-inhibition rate of cell proliferation) at 1 μmol/L, HCT-116 (HCT-116 cells): 36.8%
O=C(/C=C/c1ccccc1Cl)Nc1cn(Cc2cccc(Cl)c2)cn1 [Example 51]	3.75 µmol/L	6.13 µmol/L	7.2 µmol/L	–
CCOc1ncc(C(=O)Nc2cn(Cc3cccc(Cl)c3)cn2)cc1Cl [Example 220]	4.25 µmol/L	0.77 µmol/L	> 10 µmol/L	–
CCOc1ccc(C(=O)Nc2cn(Cc3cccc(C(F)(F)F)c3)cn2)cn1 [Example 210]	0.82 µmol/L	0.79 µmol/L	0.81 µmol/L	–
O=C(/C=C/c1ccccc1F)Nc1cn(Cc2cccc(Cl)c2)cn1 [Example 50]	0.89 µmol/L	6.7 µmol/L	2.48 µmol/L	–
O=C(/C=C/c1ccccn1)Nc1cn(Cc2cccc(Cl)c2)cn1 [Example 98]	7.58 µmol/L	7.75 µmol/L	> 10 µmol/L	–
